# Test system: adenosine monophosphate induced bronchoconstriction
# Assay: Attenuation of adenosine monophosphate (AMP) induced bronchoconstriction (Example E)
# Type: in vivo, Atopic healthy volunteers
# Settings: AMP dose giving a 40% reduction in pEFR, pretreatment inhaled for five minutes from a Wright Nebuliser
# Protocol: Effect of active ingredients A and B, separately and in combination in attenuating adenosine monophosphate induced bronchoconstriction
# Atopic healthy volunteers were selected for the study. Prior to the administration of pretreatment, baseline values of forced expiratory volume in one second (FEV₁), partial expiratory flow rate (pEFR) and maximum expiratory flow rate (mEFR) were measured. Measurement was made on at least three occasions or until the readings were stable (less than 5% variation). On each occasion the pretreatment was inhaled for five minutes from a Wright Nebuliser (operating at a flow rate of 7 litres per minute) through the mouth during tidal breathing.
# Prior to the commencement of adenosine monophosphate (AMP) challenge FEV₁, pEFR and mEFR were measured. The AMP challenge was performed on each study day by giving doubling doses of AMP, each inhaled for two minutes, from either a Wright Nebuliser (operating at a flow rate of 6.5 litres per minute) or an Acorn Nebuliser (operating at a flow rate of 5.5 litres per minute) until a reduction in pEFR of greater than 40% occurs. The nebuliser chosen for each subject was the same throughout the study. AMP was given in a 1 mg/ml-256 mg/ml concentration range, the diluent being physiological saline. Successive doses were administered at 5 minute intervals. Partial expiratory flow rates were measured at 0.5 and 2.5 minutes after each AMP dose. The dose giving a 40% (PD₄₀) reduction in pEFR was determined by interpolation from a log dose response curve.
# The results given in Table 1 were obtained using the procedure of Example E in four volunteers. Ingredient A was nedocromil sodium administered as a 0.5% w/v aqueous solution; ingredient B was atropine methonitrate administered as a 0.2% w/v aqueous solution. The combination was an aqueous solution containing 0.5% w/v nedocromil sodium and 0.2% w/v atropine methonitrate.
Structure (SMILES),PD40 (Volunteer 1) [mg/mL],PD40 (Volunteer 2) [mg/mL],PD40 (Volunteer 3) [mg/mL],PD40 (Volunteer 4) [mg/mL]
"CCCc1c2oc(C(=O)O)cc(=O)c2cc2c(=O)cc(C(=O)O)n(CC)c12 [Ingredient A, nedocromil sodium]",43,32,17,27
"C[N+]1(C)[C@@H]2CC[C@H]1C[C@@H](OC(=O)C(CO)c1ccccc1)C2 (some centres unmarked) [Ingredient B, atropine methonitrate]",42,23,12,3.4

# — patent EP0294940B1, “Pharmaceutical compositions” (FISONS plc, priority 1987, dated 1988)
